Values joined by “and” are separate entries in the source; they are usually repeats but may differ in a detail not shown here. Identical values can stand only once. Like-named read-outs stand apart in the source and are kept apart here.
Columns and labels:
CYP74C3 [1] = details: for Spin state of the haem iron after ligand or detergent binding: pH 6.5
Experimental: (a) UV/Visible spectra of ligand-bound forms of oxidised native CYP74C3 (2 μM, ? ); KCN (100 mM, ——); imidazole (50 mM, ---------); DMPhP (250 mM, —[…] […]—). The spectrum of dithionite (50 mM) reduced CYP74C3 (2 μM) before ([…]) and after (—[…]—) reaction with CO (˜1 mM) are also shown. […] (c) Stopped-flow diode array spectral changes over a period of 200 s for cyanide (100 mM) binding to native oxidised CYP74C3 (2 μM).
Spectra and steady-state kinetic analyses were performed using a dual beam scanning Shimadzu UV/Visible spectrophotometer (Model UV-1601, Shimadzu, Milton Keynes, U.K.). […] Stopped flow-UV/Visible data were analysed with the KineticAsyst 3.0 software package (Hi-Tech Scientific). Ligand-binding studies were carried out with both the native oxidised and the dithionite ion reduced forms of CYP74C3.

[2] = test system: Medicago truncatula hydroperoxide lyase CYP74C3 (HPLF), recombinant, wild type, N-terminal histidine-tagged; details: for Km / kcat: pH 6.5, 25° C.; for Km / affinity, fold change on detergent removal (Km higher) / kcat, fold difference (detergent-buffer higher than detergent-free): detergent-buffer vs detergent-free; for catalytic efficiency (kcat/Km) of detergent-free enzyme as % of enzyme purified without detergent removal: detergent-free vs detergent-buffer; for kcat as % of kcat with 13α-HPOT: purified in detergent-buffer
CYP74C3 [3] = test system: CYP74C3
Experimental: (a) Dose response curve for reactivation of detergent-free CYP74C3 with the detergent Emulphogene. Detergent-free CYP74C3 was incubated with an equal volume of 100 mM sodium phosphate buffer, pH 6.5 or containing detergent (0.01-10.24 mM Emulphogene) for 15 min on ice. Samples (1.2 pmol) were then assayed for HPL activity in the standard assay with 20 μM 13α-HPOT; (b) Plot of predicted micelle concentration versus activity for calculation of Kd for Emulphogene binding and (c) Fit of velocity-substrate curves to one-site saturation model in SigmaPlot for detergent-free CYP74C3 (1.0 pmol, ∘---∘), CYP74C3 purified in detergent-buffer (0.5 pmol, ∘—∘) and detergent-free CYP74C3 after reactivation with 5 mM Emulphogene (0.5 pmol, ▾—▾). […] Error bars are the means±standard errors of at least six determinations on two different enzyme preparations.
Substrate specificity was determined by comparing kcat/Km.

CYP74A1 [4] = target: T1, CYP74A1 (Arabidopsis thaliana, UniProt Q96242); details: pH 6.5
T1 sequence (Q96242 with tags, fused parts or gaps): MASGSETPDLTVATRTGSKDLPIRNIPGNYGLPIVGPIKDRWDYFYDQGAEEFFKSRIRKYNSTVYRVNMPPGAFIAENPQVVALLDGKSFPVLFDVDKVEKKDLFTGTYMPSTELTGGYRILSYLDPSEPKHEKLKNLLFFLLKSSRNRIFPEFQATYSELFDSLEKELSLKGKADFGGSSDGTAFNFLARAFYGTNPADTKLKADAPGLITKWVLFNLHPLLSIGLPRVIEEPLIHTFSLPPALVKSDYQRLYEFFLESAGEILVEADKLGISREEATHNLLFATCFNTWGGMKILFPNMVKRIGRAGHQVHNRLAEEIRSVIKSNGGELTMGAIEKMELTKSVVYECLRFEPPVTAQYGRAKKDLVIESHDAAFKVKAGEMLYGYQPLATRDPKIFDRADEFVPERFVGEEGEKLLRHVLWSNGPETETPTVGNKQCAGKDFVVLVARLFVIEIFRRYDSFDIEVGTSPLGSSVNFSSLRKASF

[5] = format: physicochemical
Text: The following table provides a summary enzyme stability studies conducted on HPL and AOS enzymes, subjected to either freeze drying or speedvac drying, in the presence or absence of detergent. What is reported here is the degree to which enzyme activity is lost based on the storage condition. […] Subsequent re-hydration of each dried enzyme and spectroscopic analysis was used to determine the stability of the thus-treated enzymes. FIG. 11 provides stability over time information for the thus stored enzymes showing stability for at least ten weeks. UV/Vis spectra of detergent-free preparations of CYP74C3 (HPLF), CYP74A1 (AOS) and Pepper HPL were determined before and after freeze drying, as well as before and after drying in a speedvac. […] The UV/Vis spectra of preparations of CYP74C3 (HPLF), CYP74A1 (AOS) and Pepper HPL in the detergent triton before and after freeze drying were further determined. The UV/Vis spectra of these preparations were used to determine the percentage loss of protein resulting from freeze drying, or drying in a speedvac and the results are summarised in the following table.

CYP74A1 [6] = target: T1, CYP74A1
[7] = +Detergent (purified in detergent-buffer)
[8] = Reactivated with 5 mM Emulphogene

Molecule: [C-]#[O+] [CO, Carbon monoxide]
- Spin state of the haem iron after ligand or detergent binding (CYP74C3 [1]): Low

Molecule: CCCCC/C=C\C=C\[C@H](CCCCCCCC(=O)O)OO [9α-HPOD]
- Substrate specificity (% 13α-HPOT), from kcat/Km [2, 7]: 8%
- kcat/Km [2, 7]: 12.9 µM⁻¹ s⁻¹
- Km [2, 7]: 15.3 ± 1.4 µM
- kcat [2, 7]: 197 ± 6 s⁻¹
- Substrate specificity (% 13α-HPOT), from kcat/Km ([2]; Detergent-free): 16%
- kcat/Km ([2]; Detergent-free): 0.5 µM⁻¹ s⁻¹
- Km ([2]; Detergent-free): 84.5 ± 10.1 µM
- kcat ([2]; Detergent-free): 44 ± 2 s⁻¹
- Substrate specificity (% 13α-HPOT), from kcat/Km [2, 8]: 5%
- kcat/Km [2, 8]: 7.2 µM⁻¹ s⁻¹
- Km [2, 8]: 25.8 ± 2.2 µM
- kcat [2, 8]: 185 ± 7 s⁻¹
- Km / affinity, fold change on detergent removal (Km higher) [2]: 6 fold
- kcat, fold difference (detergent-buffer higher than detergent-free) [2]: 5 fold
- catalytic efficiency (kcat/Km) of detergent-free enzyme as % of enzyme purified without detergent removal [2]: 4%
- kcat as % of kcat with 13α-HPOT [2]: 38%

Molecule: N#C[S-].[K+] [KCNS, potassium thiocyanate]
- binding of ligand to CYP74C3 (CYP74C3 [1]): shown to bind
- Spin state of the haem iron after ligand or detergent binding (CYP74C3 [1]): Mixture

Molecule: CCCCC[C@@H](/C=C/C=C\CCCCCCCC(=O)O)OO [13α-HPOD, 13-S-hydroperoxyoctadeca-9Z, 11 E-dienoic acid]
- Substrate specificity (% 13α-HPOT), from kcat/Km [2, 7]: 23% and 19%
- kcat/Km [2, 7]: 35.0 µM⁻¹ s⁻¹
- Km [2, 7]: 10.3 ± 2.1 µM
- kcat [2, 7]: 361 ± 19 s⁻¹
- Substrate specificity (% 13α-HPOT), from kcat/Km ([2]; Detergent-free): 19%
- kcat/Km ([2]; Detergent-free): 0.6 µM⁻¹ s⁻¹
- Km ([2]; Detergent-free): 102 ± 11.8 µM
- kcat ([2]; Detergent-free): 59 ± 3 s⁻¹
- Substrate specificity (% 13α-HPOT), from kcat/Km [2, 8]: 22%
- kcat/Km [2, 8]: 33.5 µM⁻¹ s⁻¹
- Km [2, 8]: 14.7 ± 1.9 µM
- kcat [2, 8]: 493 ± 17 s⁻¹
- Km / affinity, fold change on detergent removal (Km higher) [2]: 10 fold
- kcat, fold difference (detergent-buffer higher than detergent-free) [2]: 6 fold
- catalytic efficiency (kcat/Km) of detergent-free enzyme as % of enzyme purified without detergent removal [2]: 2%
- kcat as % of kcat with 13α-HPOT [2]: 70%

Molecule: c1ccncc1 [Pyridine, pyridine]
- binding of ligand to CYP74C3 (CYP74C3 [1]): shown to bind
- Spin state of the haem iron after ligand or detergent binding (CYP74C3 [1]): Low

Molecule: CC/C=C\C/C=C\C=C\[C@H](CCCCCCCC(=O)O)OO [9α-HPOT, 9-S-hydroperoxy-10E,12Z,15Z-octadecatrienoic acid]
- Substrate specificity (% 13α-HPOT), from kcat/Km [2, 7]: 0.4%
- kcat/Km [2, 7]: 0.6 µM⁻¹ s⁻¹
- Km [2, 7]: 39.1 ± 7.2 µM
- kcat [2, 7]: 24 ± 2 s⁻¹
- Substrate specificity (% 13α-HPOT), from kcat/Km ([2]; Detergent-free): 3%
- kcat/Km ([2]; Detergent-free): 0.1 µM⁻¹ s⁻¹
- Km ([2]; Detergent-free): 81.6 ± 9.7 µM
- kcat ([2]; Detergent-free): 8 ± 0 s⁻¹
- Substrate specificity (% 13α-HPOT), from kcat/Km [2, 8]: 0.4%
- kcat/Km [2, 8]: 0.6 µM⁻¹ s⁻¹
- Km [2, 8]: 51.7 ± 4.4 µM
- kcat [2, 8]: 30 ± 1 s⁻¹
- Km / affinity, fold change on detergent removal (Km higher) [2]: 2 fold
- kcat, fold difference (detergent-buffer higher than detergent-free) [2]: 3 fold
- catalytic efficiency (kcat/Km) of detergent-free enzyme as % of enzyme purified without detergent removal [2]: 17%
- kcat as % of kcat with 13α-HPOT [2]: 5%

Molecule: O=O [O2, dioxygen]
- binding of ligand to CYP74C3 (CYP74C3 [1]): shown to bind

Molecule: c1ccc2[nH]cnc2c1 [BI, benzimidazole]
- binding of ligand to CYP74C3 (CYP74C3 [1]): shown to bind

Molecule: polyoxyethylene 10 tridecyl ether [Emulphogene]
- Emulphogene concentration at which detergent-free CYP74C3 could be reactivated (CYP74C3 [3]): exceeding 2.6 mM
- Kd (CYP74C3 [3]): 6.9 µM
- reactivation of detergent-free CYP74C3 (CYP74C3 [3]): No reactivation
- Spin state of the haem iron after ligand or detergent binding (CYP74C3 [1]): Low
- Kd (CYP74A1 [4]): 10.7 ± 1.7 µM

Molecule: [N-]=[N+]=[N-] [Azide, azide]
- binding of ligand to CYP74C3 (CYP74C3 [1]): shown to bind
- Spin state of the haem iron after ligand or detergent binding (CYP74C3 [1]): Mixture

Molecule: c1cscn1 [Thiazole, thiazole]
- binding of ligand to CYP74C3 (CYP74C3 [1]): shown to bind

B1: CYP74A1: recombinant allene oxide synthase (AOS) from Arabidopsis thaliana (protein, UniProt Q96242 34-518, looked up)
Allene oxide synthase, …: SGSETPDLTVATRTGSKDLPIRNIPGNYGLPIVGPIKDRWDYFYDQGAEEFFKSRIRKYNSTVYRVNMPPGAFIAENPQVVALLDGKSFPVLFDVDKVEKKDLFTGTYMPSTELTGGYRILSYLDPSEPKHEKLKNLLFFLLKSSRNRIFPEFQATYSELFDSLEKELSLKGKADFGGSSDGTAFNFLARAFYGTNPADTKLKADAPGLITKWVLFNLHPLLSIGLPRVIEEPLIHTFSLPPALVKSDYQRLYEFFLESAGEILVEADKLGISREEATHNLLFATCFNTWGGMKILFPNMVKRIGRAGHQVHNRLAEEIRSVIKSNGGELTMGAIEKMELTKSVVYECLRFEPPVTAQYGRAKKDLVIESHDAAFKVKAGEMLYGYQPLATRDPKIFDRADEFVPERFVGEEGEKLLRHVLWSNGPETETPTVGNKQCAGKDFVVLVARLFVIEIFRRYDSFDIEVGTSPLGSSVNFSSLRKASF
- Loss of active protein (%) ([5]; Freeze Drying, +Emulphogene (0.3% w/v)): 58.1%
- Loss of active protein (%) ([5]; Freeze Drying, +Triton X-100 (0.2% w/v)): 41.3%
- Loss of active protein (%) ([5]; Freeze Drying, Detergent-free): 2.3%
- Loss of active protein (%) ([5]; Speedvac Drying, +Emulphogene (0.3% w/v)): 83.1%
- Loss of active protein (%) ([5]; Speedvac Drying, Detergent-free): 17.6%
- fold increase in kcat/Km after reactivation with detergent micelles (CYP74A1 [6]): 48 fold

From patent publication US20100035311A1, “METHOD AND COMPOSITION FOR ENZYME STORAGE” (priority 2006, published 2010)
